Here are results for one compound from paper PMC1097768 (Nucleic Acids Research, 2005).

The target of this experiment is mNdK (nucleoside diphosphate kinase) (Mycobacterium tuberculosis, UniProt P9WJH7). The experiment in a line: FRET molecular beacon nuclease assay with FP1T, Lineweaver-Burk analysis. Format: biochemical.
mNdK (nucleoside diphosphate kinase), sequence (P9WJH7 whole entry): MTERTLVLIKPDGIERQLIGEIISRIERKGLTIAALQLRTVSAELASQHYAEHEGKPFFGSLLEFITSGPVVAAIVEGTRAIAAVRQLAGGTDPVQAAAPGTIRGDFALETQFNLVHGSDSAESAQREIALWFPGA

`Nc1nc2c(ncn2[C@@H]2O[C@H](COP(=O)(O)OP(=O)(O)O)[C@@H](O)[C@H]2O)c(=O)[nH]1` [GDP] showed an inhibition constant Ki of roughly 1900 µM.
